Legend:
[1] = target: T1, HCV polymerase (NS5B570n-Con1) (Hepatitis C virus genotype 1b, UniProt Q9WMX2); assay: HCV NS5B RNA polymerase activity; assay type: biochemical, HCV Con1 strain
T1 construct: a 21 amino acid C-terminal deletion of full-length HCV polymerase; made in house; host or cells: E. coli BL21(DE3) pLysS, plasmid pET17b
Protocol: The enzymatic activity of HCV polymerase (NS5B570n-Con1) was measured as the incorporation of radiolabeled nucleotide monophosphates into acid insoluble RNA products. Unincorporated radiolabeled substrate was removed by filtration and scintillant was added to the washed and dried filter plate containing radiolabeled RNA product. The amount of RNA product generated by NS5B570n-Con1 at the end of the reaction was directly proportional to the amount of light emitted by the scintillant.
The HCV polymerase used in the enzymatic activity assay is a 21 amino acid C-terminal deletion of full-length HCV polymerase derived from HCV Con1 strain, genotype 1b (GenBank accession number AJ242654) (NS5B570n-Con1). The NS5B570n-Con1 was sub-cloned downstream to the T7 promoter of the plasmid expression construct pET17b and transformed into E. coli strain BL21(DE3) pLysS for protein expression. A single colony was used to start an innoculum for a 10 L culture in LB media supplemented with 100 μg/mL ampicillin at 37° C. Protein expression was induced by the addition of 0.25 mM isopropyl-β-D-thiogalactopyranoside (IPTG) when the optical density of the culture at […] was 0.8. Induction of protein expression was carried out at 30° C. for 16 h after which the cells were harvested by centrifugation. NS5B570n-Con1 was purified to homogeneity using a three-column purification protocol including subsequent column chromatography on Ni-NTA, SP-Sepharose HP and Superdex 75 resins.
[…] TRK-412; specific activity: 30 to 60 Ci/mmol;), 1 μM each ATP, CTP, and GTP, 40 mM Tris-HCl pH 8.0, 40 mM NaCl, 4 mM DTT (dithiothreitol), 4 mM MgCl2, 5 μl of compound serial diluted in DMSO, and nuclease-free water to a final reaction volume of 50 μl. Enzymatic reactions in the presence of poly A RNA template (see section 0004) contained 20 nM Poly A:oligo(rU)16 premixed (see section 0004), 20 nM NS5B570n-Con1 enzyme, 1 μCi of tritiated UTP (Perkin Elmer catalog no. TRK-412; specific activity: 30 to 60 Ci/mmol), 40 mM Tris-HCl pH 8.0, 40 mM NaCl, 4 mM DTT (dithiothreitol), 4 mM MgCl2, 5 μl of compound serial diluted in DMSO, and nuclease-free water to a final reaction volume of 50 μl. Reaction mixtures were assembled in 96-well filter plates (cat #MADVN0B, Millipore Co.) and incubated for 2 h at 30° C. Reactions were stopped by addition of 10% final (v/v) trichloroacetic acid and incubated for 40 min at 4° C. Reactions were filtered, washed with 8 reaction volumes of 10% (v/v) trichloroacetic acetic acid, 4 reaction volumes of 70% (v/v) ethanol, air dried, and 25 μl of scintillant (Microscint 20, Perkin-Elmer) was added to each reaction well.
Two RNA templates were used to assay compounds described herein. The cIRES RNA template was 377 nucleotide long and consisted of a partial complementary sequence (36 nucleotides) of the core protein, followed by 341 nucleotide of the complementary sequence of the internal ribosome entry site. The poly A RNA template (GE Amersham catalog number 27-4110) was a homopolymeric RNA pre-annealed to a oligo(rU)16 primer at a molar ratio of 3-to-1 (primer-template).
The amount of light emitted from the scintillant was converted to counts per minute (CPM) on a Topcount® plate reader (Perkin-Elmer, Energy Range: Low, Efficiency Mode: Normal, Count Time: 1 min, Background Subtract: none, Cross talk reduction: Off).
Data was analyzed in Excel® (Microsoft) and ActivityBase® (Idbs®). The reaction in the absence of enzyme was used to determine the background signal, which was subtracted from the enzymatic reactions. […] All data was expressed as a percentage of the positive control. The compound concentration at which the enzyme-catalyzed rate of RNA synthesis was reduced by 50%

[2] = NS5B pol inhibition IC50, as in Example 32 (20 nM RNA template)
[3] = NS5B pol inhibition IC50, cell values marked ^2, as in Example 32 except RNA template concentration 3 nM (footnote 3)

Question: What does the source list for `COc1c(CCc2ccc(NC(C)=O)cc2)cc(-c2ncc[nH]c2=O)cc1C(C)(C)C` [Compound I-2, N-(4-{2-[3-tert-Butyl-2-methoxy-5-(3-oxo-3,4-dihydro-pyrazin-2-yl)-phenyl]-ethyl}-phenyl)-acetamide]?
Answer: IC50 [1, 2]: 710 nM; melting point: 181 to 185 °C

Question: For `COc1c(CCc2ccc(NS(C)(=O)=O)cc2)cc(-c2ncc[nH]c2=O)c(F)c1C(C)(C)C` [Compound I-3, N-(4-{2-[3-tert-Butyl-4-fluoro-2-methoxy-5-(3-oxo-3,4-dihydro-pyrazin-2-yl)-phenyl]-ethyl}-phenyl)-methanesulfonamide], which IC50 [1, 2] is on record?
Answer: 41 nM

Question: And the melting point?
Answer: 130 to 132 °C

Question: For `CC(C)(C)c1cc(CCc2ccc(NS(C)(=O)=O)cc2)c(O)c(-c2ncc[nH]c2=O)c1` [Compound I-5, N-(4-{2-[5-tert-butyl-2-hydroxy-3-(3-oxo-3,4-dihydro-pyrazin-2-yl)-phenyl]-ethyl}-phenyl)-methanesulfonamide], which IC50 [1, 2] is on record?
Answer: 92 nM

Question: For `CC(C)(C)c1cc(/C=C/c2ccc(NS(C)(=O)=O)cc2)c(O)c(-c2ncc[nH]c2=O)c1` [Compound I-6, N-(4-{(E)-2-[5-tert-Butyl-2-hydroxy-3-(3-oxo-3,4-dihydro-pyrazin-2-yl)-phenyl]-vinyl}-phenyl)-methanesulfonamide], which IC50 [1, 2] is on record?
Answer: 454 nM

Question: What about the melting point of the same compound?
Answer: 280 to 282 °C

Question: For `COc1c(/C=C/c2ccc(NS(C)(=O)=O)cc2F)cc(-c2c[nH]c(=O)[nH]c2=O)cc1C(C)(C)C` [Compound I-7, N-(4-{(E)-2-[3-tert-Butyl-5-(2,4-dioxo-1,2,3,4-tetrahydro-pyrimidin-5-yl)-2-methoxy-phenyl]-vinyl}-3-fluoro-phenyl)-methanesulfonamide], which IC50 [1, 2] is on record?
Answer: 0.3 nM

Question: With `COc1c(/C=C/c2ccc(NS(C)(=O)=O)cc2)cc(-c2cn(C)c(=O)[nH]c2=O)cc1C(C)(C)C` [Compound I-8, N-(4-{(E)-2-[3-tert-Butyl-2-methoxy-5-(1-methyl-2,4-dioxo-1,2,3,4-tetrahydro-pyrimidin-5-yl)-phenyl]-vinyl}-phenyl)-methanesulfonamide] as the compound, how does the IC50 [1, 2] read?
Answer: 1.3 nM

Question: And the melting point?
Answer: > 300 °C

Question: With `CC(C)(C)c1cc(/C=C/c2ccc(NS(C)(=O)=O)cc2)cc(-c2ncc[nH]c2=O)c1` [Compound I-10] as the compound, how does the IC50 [1, 2] read?
Answer: 7 nM

Question: What about the melting point of the same compound?
Answer: 283 to 285 °C

Question: Which IC50 [1, 2] does the source give for `COc1c(/C=C/c2ccc(NS(C)(=O)=O)cc2)cc(-c2ncc[nH]c2=O)cc1C(C)(C)C` [Compound I-11, N-(4-{(E)-2-[3-tert-Butyl-2-methoxy-5-(3-oxo-3,4-dihydro-pyrazin-2-yl)-phenyl]-vinyl}-phenyl)-methanesulfonamide] here?
Answer: 4 nM

Question: Which results are given for `Cc1cc(-c2ccn[nH]c2=O)cc(C(C)(C)C)c1` [Compound I-12]?
Answer: IC50 [1, 2]: 390 nM; melting point: 175 to 176 °C

Question: With `COc1c(/C=C/c2ccccc2)cc(-c2ccn[nH]c2=O)cc1C(C)(C)C` [Compound I-14] as the compound, how does the IC50 [1, 2] read?
Answer: 7 nM

Question: What about the melting point of the same compound?
Answer: 100 to 102 °C

Question: With `CC(C)(C)c1cc(/C=C/c2ccc(NS(C)(=O)=O)cc2)cc(-c2ccn[nH]c2=O)c1` [Compound I-15] as the compound, how does the IC50 [1, 2] read?
Answer: 3 nM

Question: With `COc1ccc(-c2ccn[nH]c2=O)cc1C(C)(C)C` [Compound I-16] as the compound, how does the IC50 [1, 2] read?
Answer: 132 nM

Question: What about the melting point of the same compound?
Answer: 202 to 204 °C

Question: What does the source list for `COc1c(/C=C/c2ccc(NS(C)(=O)=O)cc2)cc(-c2cc(C)n[nH]c2=O)cc1C(C)(C)C` [Compound I-17]?
Answer: IC50 [1, 2]: 10 nM; melting point: 292 to 294 °C

Question: Which IC50 [1, 2] does the source give for `COc1c(NC(=O)c2ccc(N)cc2)cc(-c2ccn[nH]c2=O)cc1C(C)(C)C` [Compound I-19, 4-Amino-N-[3-tert-butyl-2-methoxy-5-(3-oxo-2,3-dihydro-pyridazin-4-yl)-phenyl]-benzamide] here?
Answer: 15 nM

Question: And the melting point?
Answer: 174 to 176 °C

Question: With `COc1c(NC(=O)c2ccc(NCC(F)(F)F)cc2)cc(-c2ccn[nH]c2=O)cc1C(C)(C)C` [Compound I-20, N-[3-tert-Butyl-2-methoxy-5-(3-oxo-2,3-dihydro-pyridazin-4-yl)-phenyl]-4-(2,2,2-trifluoro-ethylamino)-benzamide] as the compound, how does the IC50 [1, 2] read?
Answer: 5 nM

Question: What about the IC50 [1, 3] of the same compound?
Answer: 3 nM

Question: And the melting point?
Answer: 250 to 252 °C

Question: With `CC1(C)COc2c(-c3ncc[nH]c3=O)cc(/C=C/c3ccc(NS(C)(=O)=O)cc3)cc21` [Compound I-23, N-(4-{(E)-2-[3,3-Dimethyl-7-(3-oxo-3,4-dihydro-pyrazin-2-yl)-2,3-dihydro-benzofuran-5-yl]-vinyl}-phenyl)-methanesulfonamide] as the compound, how does the IC50 [1, 3] read?
Answer: 19 nM

Question: What about the melting point of the same compound?
Answer: 302 to 304 °C

Question: Which IC50 [1, 2] does the source give for `COc1c(/C=C/c2ccc(NS(C)(=O)=O)cc2)cc(-c2ccn[nH]c2=O)cc1C1CC1` [Compound I-26, N-(4-{(E)-2-[3-Cyclopropyl-2-methoxy-5-(3-oxo-2,3-dihydro-pyridazin-4-yl)-phenyl]-vinyl}-phenyl)-methanesulfonamide] here?
Answer: 2.1 nM

Question: And the melting point?
Answer: 269 to 271 °C

Question: With `COc1c(/C=C/c2ccc(NS(C)(=O)=O)cc2)cc(-c2ccn[nH]c2=O)c2c1C(C)(C)CO2` [Compound I-27, N-(4-{(E)-2-[4-Methoxy-3,3-dimethyl-7-(3-oxo-2,3-dihydro-pyridazin-4-yl)-2,3-dihydro-benzofuran-5-yl]-vinyl}-phenyl)-methanesulfonamide] as the compound, how does the IC50 [1, 2] read?
Answer: 0.3 nM

Question: With `COc1c(/C=C/c2ccc(NS(C)(=O)=O)cn2)cc(-c2c[nH]c(=O)[nH]c2=O)cc1C(C)(C)C` [Compound I-29, N-(6-{(E)-2-[3-tert-Butyl-5-(2,4-dioxo-1,2,3,4-tetrahydro-pyrimidin-5-yl)-2-methoxy-phenyl]-vinyl}-pyridin-3-yl)-methanesulfonamide] as the compound, how does the IC50 [1, 2] read?
Answer: 1.2 nM

Question: For `COc1c(-c2ccc3cc(NS(C)(=O)=O)ccc3c2)cc(-c2ncn[nH]c2=O)cc1C(C)(C)C` [Compound I-37, N-{6-[3-tert-Butyl-2-methoxy-5-(6-oxo-1,6-dihydro-[1,2,4]triazin-5-yl)-phenyl]-naphthalen-2-yl}-methanesulfonamide], which IC50 [1, 2] is on record?
Answer: 0.7 nM

Question: Which IC50 [1, 2] does the source give for `COc1c(/C=C/c2ccc(NS(C)(=O)=O)cc2)cc(-c2c[nH]c(=O)[nH]c2=O)cc1CC(F)(F)F` [Compound I-38, N-(4-{(E)-2-[5-(2,4-Dioxo-1,2,3,4-tetrahydro-pyrimidin-5-yl)-2-methoxy-3-(2,2,2-trifluoro-ethyl)-phenyl]-vinyl}-phenyl)-methanesulfonamide] here?
Answer: 1.4 nM

Question: For `COCc1cc(NS(C)(=O)=O)ccc1/C=C/c1cc(-c2cnc(OC)[nH]c2=O)cc(C(C)(C)C)c1OC` [Compound I-39, N-(4-{(E)-2-[3-tert-Butyl-2-methoxy-5-(2-methoxy-6-oxo-1,6-dihydro-pyrimidin-5-yl)-phenyl]-vinyl}-3-methoxymethyl-phenyl)-methanesulfonamide], which IC50 [1, 2] is on record?
Answer: 0.9 nM

Question: With `COc1c(/C=C/c2ccc(NS(C)(=O)=O)cc2)cc(-c2c(O)nc(C)[nH]c2=O)cc1C(C)(C)C` [Compound I-41, N-(4-{(E)-2-[3-tert-Butyl-5-(4-hydroxy-2-methyl-6-oxo-1,6-dihydro-pyrimidin-5-yl)-2-methoxy-phenyl]-vinyl}-phenyl)-methanesulfonamide] as the compound, how does the IC50 [1, 2] read?
Answer: 0.4 nM

Question: Which IC50 [1, 2] does the source give for `COc1c(/C=C/c2ccc(NS(C)(=O)=O)cc2)cc(-c2cnc(C)[nH]c2=O)cc1C(C)(C)C` [Compound I-43, N-(4-{(E)-2-[3-tert-Butyl-2-methoxy-5-(2-methyl-6-oxo-1,6-dihydro-pyrimidin-5-yl)-phenyl]-vinyl}-phenyl)-methanesulfonamide] here?
Answer: 1.1 nM

Reference: patent US8178547B2, “Heterocyclic antiviral compounds” (Roche Palo Alto LLC, priority 2008, dated 2012)
